Several values for one entry are separate records, joined by “and”; a condition that tells them apart may be missing. Equal values may be shown once. HELM strings list units from the 5' end as sugar, base in round brackets, then linkage (d deoxyribose, r ribose, m 2'-O-methyl, p phosphodiester). Methylation of C is not given here. [moe] = 2'-O-(2-methoxyethyl) (MOE); [cEt] = constrained ethyl (cEt); [sp] = phosphorothioate linkage
Molecular target: HBV
Details: ASO

Row | Substance | target mRNA inhibition (HepG2, 0.07 µM) | target mRNA inhibition (HepG2, 0.0092593 µM) [%] | target mRNA inhibition (HepG2, 0.0277778 µM) [%] | target mRNA inhibition (HepG2, 0.0833333 µM) [%] | target mRNA inhibition (HepG2, 0.25 µM) [%] | further results
1 | RNA1{[moe](A)[sp].[cEt](G)[sp].[cEt](A)[sp].d(A)[sp].d(G)[sp].d(T)[sp].d(C)[sp].d(C)[sp].d(A)[sp].d(C)[sp].d(C)[sp].d(A)[sp].d(C)[sp].[cEt](G)[sp].[cEt](A)[sp].[moe](G)}$$$$V2.0 | 58% and 48% |  |  |  |  | 
2 | RNA1{[moe](A)[sp].[cEt](G)[sp].[cEt](A)[sp].d(G)[sp].d(G)[sp].d(T)[sp].d(G)[sp].d(A)[sp].d(A)[sp].d(G)[sp].d(C)[sp].d(G)[sp].d(A)[sp].[cEt](A)[sp].[cEt](G)[sp].[moe](T)}$$$$V2.0 | 68% and 74% |  |  |  |  | 
3 | RNA1{[moe](A)[sp].[cEt](G)[sp].[cEt](G)[sp].d(A)[sp].d(G)[sp].d(T)[sp].d(T)[sp].d(C)[sp].d(C)[sp].d(G)[sp].d(C)[sp].d(A)[sp].d(G)[sp].[cEt](T)[sp].[cEt](A)[sp].[moe](T)}$$$$V2.0 | 89% and 79% | 4 | 35 | 70 | 87 | 
4 | RNA1{[moe](A)[sp].[cEt](G)[sp].[cEt](G)[sp].d(T)[sp].d(G)[sp].d(A)[sp].d(A)[sp].d(G)[sp].d(C)[sp].d(G)[sp].d(A)[sp].d(A)[sp].d(G)[sp].[cEt](T)[sp].[cEt](G)[sp].[moe](C)}$$$$V2.0 | 79% |  |  |  |  | target mRNA inhibition (HepG2, 0.009375 µM): 21%; target mRNA inhibition (HepG2, 0.01875 µM): 30%; target mRNA inhibition (HepG2, 0.0375 µM): 39%; target mRNA inhibition (HepG2, 0.075 µM): 61%; target mRNA inhibition (HepG2, 0.15 µM): 79%; target mRNA inhibition (HepG2, 0.3 µM): 91%
5 | RNA1{[moe](A)[sp].[cEt](G)[sp].[cEt](T)[sp].d(T)[sp].d(C)[sp].d(C)[sp].d(G)[sp].d(C)[sp].d(A)[sp].d(G)[sp].d(T)[sp].d(A)[sp].d(T)[sp].[cEt](G)[sp].[cEt](G)[sp].[moe](A)}$$$$V2.0 |  | 12 | 25 | 73 | 84 | 
6 | RNA1{[moe](A)[sp].[cEt](G)[sp].d(C)[sp].d(G)[sp].d(A)[sp].d(A)[sp].d(G)[sp].d(T)[sp].d(G)[sp].d(C)[sp].d(A)[sp].d(C)[sp].[cEt](A)[sp].[moe](C)[sp].[cEt](G)[sp].[moe](G)}$$$$V2.0 | 86% and 88% | 24 | 62 | 84 | 91 | 
7 | RNA1{[moe](A)[sp].[cEt](G)[sp].d(G)[sp].d(C)[sp].d(A)[sp].d(T)[sp].d(A)[sp].d(G)[sp].d(C)[sp].d(A)[sp].d(G)[sp].d(C)[sp].[cEt](A)[sp].[moe](G)[sp].[cEt](G)[sp].[moe](A)}$$$$V2.0 | 66% and 52% |  |  |  |  | 
8 | RNA1{[moe](A)[sp].[cEt](T)[sp].[cEt](G)[sp].d(A)[sp].d(G)[sp].d(G)[sp].d(C)[sp].d(A)[sp].d(T)[sp].d(A)[sp].d(G)[sp].d(C)[sp].d(A)[sp].[cEt](G)[sp].[cEt](C)[sp].[moe](A)}$$$$V2.0 | 65% and 83% | 13 | 14 | 55 | 70 | 
9 | RNA1{[moe](A)[sp].[cEt](T)[sp].[cEt](T)[sp].d(T)[sp].d(A)[sp].d(T)[sp].d(G)[sp].d(C)[sp].d(C)[sp].d(T)[sp].d(A)[sp].d(C)[sp].d(A)[sp].[cEt](G)[sp].[cEt](C)[sp].[moe](C)}$$$$V2.0 | 57% and 46% |  |  |  |  | 
10 | RNA1{[moe](A)[sp].[moe](A)[sp].[moe](C)[sp].[moe](C)[sp].d(A)[sp].d(C)[sp].d(T)[sp].d(G)[sp].d(A)[sp].d(A)[sp].d(C)[sp].d(A)[sp].d(A)[sp].[moe](A)[sp].[moe](T)[sp].[moe](G)[sp].[moe](G)}$$$$V2.0 | 57% and 55% |  |  |  |  | 
11 | RNA1{[moe](A)[sp].[moe](A)[sp].[moe](C)[sp].[moe](C)[sp].d(A)[sp].d(C)[sp].d(T)[sp].d(G)[sp].d(A)[sp].d(A)[sp].d(C)[sp].d(A)[sp].d(A)[sp].[moe](A)[sp].[moe](T)[sp].[moe](G)}$$$$V2.0 | 52% and 54% |  |  |  |  | 

Source: the OligoGym collection
